Measured values as given in patent US8158792B2, “Spiropiperidines for use as tryptase inhibitors” (Janssen Pharmaceutica N.V., priority 2007, dated 2012).

Biological target: human lung tryptase
Experiment: β-Tryptase In-Vitro Enzyme Assay
Format: biochemical
Conditions: human lung tryptase 1 nM, substrate H-D-HHT-Ala-Arg-pNa 500 μM, pH 7.4, room temperature
Protocol: The β-tryptase assay was conducted with human lung tryptase (Cortex Biochem #CP3033) in an aqueous buffer (10 mM Tris, 10 mM Hepes, 150 mM NaCl, 0.1% PEG 8000, pH 7.4) using the chromogenic substrate H-D-HHT-Ala-Arg-pNa. […] Percent inhibition was calculated by comparing the initial reaction velocity of samples without inhibitor to those with inhibitor. The initial reaction velocities were analyzed using Microsoft Excel.

| Structure (SMILES) | IC50 |
| --- | --- |
| NCc1ccc2c(c1)C1(CCN(C(=O)c3nc(-c4cccs4)no3)CC1)CO2 [Cpd 277, 1-(3-thien-2-yl-[1,2,4]oxadiazol-5-yl)carbonyl-5′-aminomethyl-spiro[piperidine-4,3′-(2H)-benzo[b]furan]] | 6 nM |
| NCc1ccc2c(c1)C1(CCN(C(=O)c3cc(Br)c(Br)s3)CC1)CO2 [Cpd 278, 1-(4,5-dibromo-thien-2-yl)carbonyl-5′-aminomethyl-spiro[piperidine-4,3′-(2H)-benzo[b]furan]] | 12 nM |
| NCc1ccc2c(c1)C1(CCN(C(=O)c3ccc(Oc4cc(C(F)(F)F)cc(C(F)(F)F)c4)cc3)CC1)CO2 [Cpd 279, 1-[4-(3,5-bis-trifluoromethyl-phenoxy)-phenyl]carbonyl-5′-aminomethyl-spiro[piperidine-4,3′-(2H)-benzo[b]furan]] | 8000 nM |
| NCc1ccc2c(c1)C1(CCN(S(=O)(=O)c3ccc(Cl)c(Cl)c3)CC1)CO2 [Cpd 280, 1-(3,4-dichlorophenyl)sulfonyl-5′-aminomethyl-spiro[piperidine-4,3′-(2H)-benzo[b]furan]] | 220 nM |
| NCc1ccc2c(c1)C1(CCN(C(=O)/C=C/c3cccc(OCc4ccccc4)c3)CC1)CO2 [Cpd 281, (E)-1-(3-benzyloxy-phenylethenyl)carbonyl-5′-aminomethyl-spiro[piperidine-4,3′-(2H)-benzo[b]furan]] | 24 nM |
| CC(C)(C)c1ccc(C#Cc2ccc(C(=O)N3CCC4(CC3)COc3ccc(CN)cc34)o2)cc1 [Cpd 282, 1-[5-(4-tert-butyl-phenylethynyl)-furan-2-yl]carbonyl-5′-aminomethyl-spiro[piperidine-4,3′-(2H)-benzo[b]furan]] | 700 nM |
| NCc1ccc2c(c1)C1(CCN(C(=O)c3cc4ccccc4n3S(=O)(=O)c3ccccc3)CC1)CO2 [Cpd 283, 1-(1-phenylsulfonyl-1H-indol-2-yl)carbonyl-5′-aminomethyl-spiro[piperidine-4,3′-(2H)-benzo[b]furan]] | 910 nM |
| NCc1ccc2c(c1)C1(CCN(C(=O)c3cc(C(N)=O)cc(-c4nc(-c5cccs5)no4)c3)CC1)CO2 [Cpd 284, 1-[3-(3-thien-2-yl-[1,2,4]oxadiazol-5-yl)-5-aminocarbonyl-phenyl]carbonyl-5′-aminomethyl-spiro[piperidine-4,3′-(2H)-benzo[b]furan]] | 4.6 nM |
| NCc1ccc2c(c1)C1(CCN(C(=O)c3cc4ccccc4[nH]3)CC1)CO2 [Cpd 285, 1-1H-indol-2-ylcarbonyl-5′-aminomethyl-spiro[piperidine-4,3′-(2H)-benzo[b]furan]] | 360 nM |
| NCc1ccc2c(c1)C1(CCN(C(=O)C3=CCc4ccccc43)CC1)CO2 [Cpd 286, 1-3H-inden-1-ylcarbonyl-5′-aminomethyl-spiro[piperidine-4,3′-(2H)-benzo[b]furan]] | 920 nM |
| NCc1ccc2c(c1)C1(CCN(C(=O)C3CC(=O)c4ccccc43)CC1)CO2 (stereo not drawn) [Cpd 287, 1-(3-oxo-indan-1-yl)carbonyl-5′-aminomethyl-spiro[piperidine-4,3′-(2H)-benzo[b]furan]] | 4300 nM |
| NCc1ccc2c(c1)C1(CCN(C(=O)c3cc(-c4ccccc4)cs3)CC1)CO2 [Cpd 288, 1-(4-phenyl-thien-2-yl)carbonyl-5′-aminomethyl-spiro[piperidine-4,3′-(2H)-benzo[b]furan]] | 280 nM |
| NCc1ccc2c(c1)C1(CCN(C(=O)C3c4ccccc4-c4ccccc43)CC1)CO2 [Cpd 289, 1-fluoren-9-ylcarbonyl-5′-aminomethyl-spiro[piperidine-4,3′-(2H)-benzo[b]furan]] | 1400 nM |
| NCc1ccc2c(c1)C1(CCN(C(=O)C(c3ccccc3)c3ccccc3)CC1)CO2 [Cpd 290, 1-(1-oxo-2,2-diphenyl-ethyl)-5′-aminomethyl-spiro[piperidine-4,3′-(2H)-benzo[b]furan]] | 160 nM |
| COCCOc1cccc(/C=C/C(=O)N2CCC3(CC2)COc2ccc(CN)cc23)c1 [Cpd 291, (E)-1-[3-(2-methoxy-ethoxy)-phenylethenyl]carbonyl-5′-aminomethyl-spiro[piperidine-4,3′-(2H)-benzo[b]furan]] | 400 nM |
| NCc1ccc2c(c1)C1(CCN(C(=O)C3c4ccccc4Oc4ccccc43)CC1)CO2 [Cpd 292, 1-9H-xanthen-9-ylcarbonyl-5′-aminomethyl-spiro[piperidine-4,3′-(2H)-benzo[b]furan]] | 6100 nM |
| NCc1ccc2c(c1)C1(CCN(C(=O)CC3c4ccccc4Oc4ccccc43)CC1)CO2 [Cpd 293, 1-9H-xanthen-9-ylmethylcarbonyl-5′-aminomethyl-spiro[piperidine-4,3′-(2H)-benzo[b]furan]] | 1200 nM |
| NCc1ccc2c(c1)C1(CCN(C(=O)/C=C/c3cccc(OCCc4ccccc4)c3)CC1)CO2 [Cpd 294, (E)-1-(3-phenethoxy-phenylethenyl)carbonyl-5′-aminomethyl-spiro[piperidine-4,3′-(2H)-benzo[b]furan]] | 97 nM |

| Structure (SMILES) | IC50 |
| --- | --- |
| NCc1ccc2c(c1)C1(CCN(C(=O)c3cc(-c4ccccc4)c(C(F)(F)F)s3)CC1)CO2 [Cpd 295, 1-(4-phenyl-5-trifluoromethyl-thien-2-yl)carbonyl-5′-aminomethyl-spiro[piperidine-4,3′-(2H)-benzo[b]furan]] | 42 nM |
| NCc1ccc2c(c1)C1(CCN(C(=O)C#Cc3ccccc3)CC1)CO2 [Cpd 296, 1-phenylethynylcarbonyl-5′-aminomethyl-spiro[piperidine-4,3′-(2H)-benzo[b]furan]] | 210 nM |
| C[N+](C)(C)Cc1ccc2c(c1)C1(CCN(C(=O)c3ccc(C#Cc4ccccc4)o3)CC1)CO2 [Cpd 297, 1-(5-phenylethynyl-furan-2-yl)carbonyl-spiro[piperidine-4,3′-(2H)-benzo[b]furan]-5′-[methyl-(trimethyl)ammonium]] | 9600 nM |
| NCc1ccc2c(c1)C1(CCN(C(=O)c3sc4ccc5ccccc5c4c3Cl)CC1)CO2 [Cpd 298, 1-(1-chloro-naphtho[2,1-b]thien-2-yl)carbonyl-5′-aminomethyl-spiro[piperidine-4,3′-(2H)-benzo[b]furan]] | 210 nM |
| CSc1cc(-c2ccc(Cl)cc2)c(C(=O)N2CCC3(CC2)COc2ccc(CN)cc23)s1 [Cpd 299, 1-[3-(4-chloro-phenyl)-5-methylthio-thien-2-yl]carbonyl-5′-aminomethyl-spiro[piperidine-4,3′-(2H)-benzo[b]furan]] | 17 nM |
| NCc1ccc2c(c1)C1(CCN(C(=O)/C=C/c3ccc(OCc4ccccc4)cc3)CC1)CO2 [Cpd 300, (E)-1-(4-benzyloxy-phenylethenyl)carbonyl-5′-aminomethyl-spiro[piperidine-4,3′-(2H)-benzo[b]furan]] | 1500 nM |
| COCCCOc1cccc(/C=C/C(=O)N2CCC3(CC2)COc2ccc(CN)cc23)c1 [Cpd 301, (E)-1-[3-(3-methoxy-propoxy)-phenylethenyl]carbonyl-5′-aminomethyl-spiro[piperidine-4,3′-(2H)-benzo[b]furan]] | 1500 nM |
| CCOCCOc1cccc(/C=C/C(=O)N2CCC3(CC2)COc2ccc(CN)cc23)c1 [Cpd 302, (E)-1-[3-(2-ethoxy-ethoxy)-phenylethenyl]carbonyl-5′-aminomethyl-spiro[piperidine-4,3′-(2H)-benzo[b]furan]] | 750 nM |
| CCCOc1sc(C(=O)N2CCC3(CC2)COc2ccc(CN)cc23)c(C)c1Br [Cpd 303, 1-(3-methyl-4-bromo-5-propoxy-thien-2-yl)carbonyl-5′-aminomethyl-spiro[piperidine-4,3′-(2H)-benzo[b]furan]] | 3.7 nM |
| O=CNCc1ccc2c(c1)C1(CCN(C(=O)c3ccc(C#Cc4ccccc4)o3)CC1)CO2 [Cpd 304, 1-(5-phenylethynyl-furan-2-yl)carbonyl-5′-formylaminomethyl-spiro[piperidine-4,3′-(2H)-benzo[b]furan]] | 30 nM |
| NS(=O)(=O)NCc1ccc2c(c1)C1(CCN(C(=O)c3ccc(C#Cc4ccccc4)o3)CC1)CO2 [Cpd 305, 1-(5-phenylethynyl-furan-2-yl)carbonyl-5′-aminosulfonylaminomethyl-spiro[piperidine-4,3′-(2H)-benzo[b]furan]] | 6300 nM |
| N=C(NO)c1ccc2c(c1)C1(CCN(C(=O)c3ccc(C#Cc4ccccc4)o3)CC1)CO2 [Cpd 306, 1-(5-phenylethynyl-furan-2-yl)carbonyl-5′-[hydroxyamino(imino)methyl]-spiro[piperidine-4,3′-(2H)-benzo[b]furan]] | 71 nM |
| N=C(NN)c1ccc2c(c1)C1(CCN(C(=O)c3ccc(C#Cc4ccccc4)o3)CC1)CO2 [Cpd 307, 1-(5-phenylethynyl-furan-2-yl)carbonyl-5′-[hydrazino(imino)methyl]-spiro[piperidine-4,3′-(2H)-benzo[b]furan]] | 60 nM |
| NCc1cc2c(cc1F)OCC21CCN(C(=O)c2ccc(Cl)c(Cl)c2)CC1 [Cpd 308, 1-(3,4-dichlorophenyl)carbonyl-5′-aminomethyl-6′-fluoro-spiro[piperidine-4,3′-(2H)-benzo[b]furan]] | 7300 nM |
| NCc1ccc2c(c1)C1(CCN(C(=O)/C=C/c3ccccc3F)CC1)CO2 [Cpd 309, (E)-1-(2-fluoro-phenylethenyl)carbonyl-5′-aminomethyl-spiro[piperidine-4,3′-(2H)-benzo[b]furan]] | 100 nM |
| CNC(=N)c1ccc2c(c1)C1(CCN(C(=O)c3ccc(C#Cc4ccccc4)o3)CC1)CO2 [Cpd 310, 1-(5-phenylethynyl-furan-2-yl)carbonyl-5′-[methylamino(imino)methyl]-spiro[piperidine-4,3′-(2H)-benzo[b]furan]] | 780 nM |
| NCc1cc2c(cc1F)OCC21CCN(C(=O)c2ccc(C#Cc3ccccc3)o2)CC1 [Cpd 311, 1-(5-phenylethynyl-furan-2-yl)carbonyl-5′-aminomethyl-6′-fluoro-spiro[piperidine-4,3′-(2H)-benzo[b]furan]] | 39 nM |
| NCc1ccc2c(c1)C1(CCN(C(=O)/C=C/c3cccc(F)c3F)CC1)CO2 [Cpd 312, (E)-1-(2,3-difluoro-phenylethenyl)carbonyl-5′-aminomethyl-spiro[piperidine-4,3′-(2H)-benzo[b]furan]] | 590 nM |
